From ChEMBL document CHEMBL5126528, “Recent strategies targeting Embryonic Ectoderm Development (EED) for cancer therapy: Allosteric inhibitors, PPI inhibitors, and PROTACs” (Eur J Med Chem, 2022)
Converted amounts (≈) assume the structure as drawn. Counter-ions that a name gives are not always drawn.

Experiments:
Polycomb protein EED [1] = biological target: T1, Polycomb protein EED (Homo sapiens, UniProt O75530); experiment: Binding affinity to EED (unknown origin) assessed as dissociation constant by SPR analysis
Target sequence in this assay (O75530 whole entry): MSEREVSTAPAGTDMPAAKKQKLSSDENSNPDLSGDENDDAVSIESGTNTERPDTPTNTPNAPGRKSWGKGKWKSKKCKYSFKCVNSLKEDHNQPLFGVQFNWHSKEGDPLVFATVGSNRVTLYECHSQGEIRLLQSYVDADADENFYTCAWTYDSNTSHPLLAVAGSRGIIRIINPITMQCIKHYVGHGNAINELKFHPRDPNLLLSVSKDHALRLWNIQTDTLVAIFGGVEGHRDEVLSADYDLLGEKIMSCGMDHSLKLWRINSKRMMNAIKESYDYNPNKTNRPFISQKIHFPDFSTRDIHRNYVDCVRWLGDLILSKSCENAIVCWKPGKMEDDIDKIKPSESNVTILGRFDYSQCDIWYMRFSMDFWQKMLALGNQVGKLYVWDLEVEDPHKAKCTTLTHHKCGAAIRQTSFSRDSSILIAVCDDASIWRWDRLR

[2] = Inhibition of PRC2 (unknown origin); design: species or system Homo sapiens
[3] = Solubility of the compound at pH 7.4; assay type: physicochemical; conditions: buffer
Polycomb protein EED [4] = biological target: T1, Polycomb protein EED; experiment: Inhibition of EED (unknown origin)
Target sequence in this assay (O75530 whole entry): as above

Homo sapiens = species on record: Homo sapiens; experiment: Inhibition of GST-tagged EZH2/FLAG-tagged EED (unknown origin) protein protein interaction at 100 uM incubated for 1 hr by AlphaLISA method relative to control
Pfeiffer [5] = experiment: Antiproliferative activity against human Pfeiffer cells treated for 14 days; assay type: functional, cell-based; conditions: 336 h
KARPAS-422 [6] = experiment: Antiproliferative activity against human KARPAS-422 cells treated for 11 days; assay type: functional, cell-based; conditions: KARPAS-422, 264 h
Polycomb protein EED [7] = biological target: T1, Polycomb protein EED; experiment: Binding affinity to human N-terminal His-6 tagged EED expressed in Escherichia coli strain […] by SPR analysis
Target sequence in this assay (O75530 whole entry): as above

Polycomb protein EED [8] = biological target: T1, Polycomb protein EED; experiment: Inhibition of human N-terminal His-6 tagged EED expressed in Escherichia coli strain […] by SPR analysis
Target sequence in this assay (O75530 whole entry): as above

KARPAS-422 [9] = experiment: Antiproliferative activity against human KARPAS-422 cells assessed as cell growth inhibition measured after 7 to 10 days by celltitre-glo-luminescent assay; assay type: functional; conditions: time 7-10 day
[10] = Binding affinity to EZH2-EED (unknown origin) protein interaction assessed as inhibition constant by FP binding assay; design: species or system Homo sapiens
[11] = Inhibition of EZH2-EED (unknown origin) protein interaction by FP binding assay; design: species or system Homo sapiens
[12] = Inhibition of FITC-labeled EZH2 (39 to 63 residues) (unknown origin)/N-terminal 6x His-tagged human EED protein interaction by incubated for 2 hrs FP-based competitive assay
Polycomb protein EED [13] = biological target: T1, Polycomb protein EED; experiment: Binding affinity to full length EED (unknown origin) assessed as increase in melting temperature at 100 uM incubated for 30 mins by TSA; conditions: tested as the 2H-labelled form
Target sequence in this assay (O75530 2-441 limits assumed): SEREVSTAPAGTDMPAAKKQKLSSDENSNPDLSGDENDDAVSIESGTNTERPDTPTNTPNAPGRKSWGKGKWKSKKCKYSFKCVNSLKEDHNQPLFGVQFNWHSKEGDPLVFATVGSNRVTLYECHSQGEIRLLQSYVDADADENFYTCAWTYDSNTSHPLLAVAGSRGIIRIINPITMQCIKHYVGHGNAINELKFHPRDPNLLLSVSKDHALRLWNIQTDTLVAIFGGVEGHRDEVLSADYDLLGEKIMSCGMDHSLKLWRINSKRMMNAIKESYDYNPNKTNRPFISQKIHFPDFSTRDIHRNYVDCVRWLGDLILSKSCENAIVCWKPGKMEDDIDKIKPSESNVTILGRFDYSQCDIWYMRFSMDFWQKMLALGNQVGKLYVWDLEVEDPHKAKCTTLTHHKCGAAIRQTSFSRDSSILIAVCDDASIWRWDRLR

Polycomb protein EED [14] = biological target: T1, Polycomb protein EED; experiment: Binding affinity to full length EED (unknown origin) assessed as increase in melting temperature at 50 uM incubated for 30 mins by TSA; conditions: tested as the 2H-labelled form
Target sequence in this assay (O75530 2-441 limits assumed): as above

Pfeiffer [15] = experiment: Antitumor activity against human Pfeiffer cells xenografted in NOD/SCID mouse assessed as tumor growth inhibition at 40 mg/kg, bid, po for 36 days relative to control; assay type: functional; conditions: 864 h, time 36 day, read-out: TGI
[16] = Antitumor activity against […] cells xenografted in mouse assessed as tumor growth inhibition at 30 mg/kg relative to control; assay type: functional; conditions: read-out: TGI
KARPAS-422 [17] = experiment: Antitumor activity against human KARPAS-422 cells assessed as tumor growth inhibition at 100 mg/kg, po, bid for 38 days relative to control; assay type: functional; conditions: KARPAS-422, 912 h, time 38 day, read-out: TGI
KARPAS-422 [18] = experiment: Antitumor activity against human KARPAS-422 cells xenografted in NOD/SCID mouse assessed as tumor growth inhibition at 100 mg/kg, bid, po for 36 days relative to control; assay type: functional; conditions: KARPAS-422, 864 h, time 36 day, read-out: TGI
Pfeiffer [19] = experiment: Antitumor activity against human Pfeiffer cells xenografted in NOD/SCID mouse assessed as tumor growth inhibition at 100 mg/kg, bid, po for 36 days relative to control; assay type: functional; conditions: 864 h, time 36 day, read-out: TGI
KARPAS-422 [20] = experiment: Antitumor activity against human KARPAS-422 cells xenografted in NOD/SCID mouse assessed as tumor growth inhibition at 40 mg/kg, bid, po for 36 days relative to control; assay type: functional; conditions: KARPAS-422, 864 h, time 36 day, read-out: TGI
Polycomb protein EED [21] = biological target: T1, Polycomb protein EED; experiment: Inhibition of His-tagged EED (unknown origin) incubated for 30 mins in presence of biotinylated H3K27me3 peptide (19 to 33 aa) by alpha screening competitive binding assay method
Target sequence in this assay (O75530 whole entry): as the sequence (O75530 whole entry) above

Pfeiffer [22] = experiment: Antitumor activity against human Pfeiffer cells assessed as tumor growth inhibition at 100 mg/kg, po, bid for 38 days relative to control; assay type: functional; conditions: 912 h, time 38 day, read-out: TGI
Polycomb protein EED [23] = biological target: T1, Polycomb protein EED; experiment: Binding affinity to EED (unknown origin) assessed as dissociation constant
Target sequence in this assay (O75530 whole entry): as above

Polycomb protein EED [24] = biological target: T1, Polycomb protein EED; experiment: Inhibition of human EED (76 to 441 residues) expressed in Escherichia coli strain BL21(DE3) by alpha screen assay

## Cc1ncccc1-c1cnc(NCc2c(F)cc(F)c3c2CCO3)n2cnnc12
Polycomb protein EED [1]
  Kd: 1.2 nM
[2]
  IC50: 11 nM
[3]
  solubility: 4 µM (≈ 1.58 µg/mL)

## Cc1cc(-c2cnc(NCC3Cc4cc(F)ccc4O3)n3cc(C#N)nc23)n(C)n1 (centres undefined)
Polycomb protein EED [4]
  IC50: < 100 nM

## Cc1ncccc1-c1cnc(NCC2Cc3cc(F)ccc3O2)n2cc(C#N)nc12 (centres undefined)
Polycomb protein EED [4]
  IC50: < 100 nM

## Cc1ncccc1-c1cnc(NCc2c(F)cc(C#N)c3c2CCO3)n2cnnc12
Polycomb protein EED [1]
  Kd: 15 nM
[2]
  IC50: 102 nM
[3]
  solubility: 3 µM (≈ 1.2 µg/mL)

## Cc1ncccc1-c1cnc(NCC2Cc3cc(F)ccc3O2)c2cncnc12 (centres undefined)
Polycomb protein EED [4]
  IC50: < 100 nM

## O=C1Nc2ccc(S(=O)(=O)NCCCCCCNS(=O)(=O)c3ccc4c5c(cccc35)C(=O)N4)c3cccc1c23
Homo sapiens
  inhibition: 84%

## CCS(=O)(=O)N1CC=C(c2cnc(NCC3Cc4cc(F)ccc4O3)n3cnnc23)CC1 (centres undefined)
Pfeiffer [5]
  IC50: 0.8 nM
Polycomb protein EED [4]
  IC50: < 20 nM
KARPAS-422 [6]
  IC50: 4 nM

## Cc1ncsc1-c1ccc(CNC(=O)[C@@H]2C[C@@H](O)CN2C(=O)[C@@H](NC(=O)COc2ccc(OCCNC(=O)CCc3ccc(-c4cnc(NCc5c(F)ccc6c5CCO6)n5cnnc45)c(N)n3)cc2)C(C)(C)C)cc1
Polycomb protein EED [7]
  Kd: 0.631 nM
Polycomb protein EED [8]
  IC50: 6.76 nM
KARPAS-422 [9]
  GI50: 45 nM

## CN1CCc2cccc3c2[C@H]1Cc1ccc(O)c(O)c1-3 [APOMORPHINE HYDROCHLORIDE]
[10]
  Ki: 2900 nM
[11]
  IC50: 15500 nM

## Cc1nc(CCC(=O)NCCCCC(=O)N[C@H](C(=O)N2C[C@H](O)C[C@H]2C(=O)NCc2ccc(-c3scnc3C)cc2)C(C)(C)C)ccc1-c1cnc(NCc2c(F)ccc3c2CCO3)n2cnnc12
Polycomb protein EED [7]
  Kd: 0.537 nM
Polycomb protein EED [8]
  IC50: 7.76 nM
KARPAS-422 [9]
  GI50: 57 nM

## Cc1ccc(C(C2=C(O)CC(C)(C)CC2=O)C2C(=O)CC(C)(C)CC2=O)s1 (centres undefined)
[12]
  IC50: 63800 nM

## CCCCC1C(=O)N(c2ccccc2)N(c2ccc(O)cc2)C1=O (centres undefined) [OXYPHENBUTAZONE ANHYDROUS]
[10]
  Ki: 44500 nM
[11]
  IC50: 229000 nM

## Cc1ncccc1-c1cnc(NCc2c(F)ccc3c2CCO3)n(C)c1=O
Polycomb protein EED [13]
  ΔTm: 10 °C
Polycomb protein EED [14]
  ΔTm: 6 °C

## COc1ccc(CCN2CCC(Nc3nc4ccccc4n3Cc3ccc(F)cc3)CC2)cc1 [ASTEMIZOLE]
[12]
  IC50: 93800 nM

## Cc1ncccc1-c1cnc(NCc2c(F)cc(O)c3c2CCO3)n2cnnc12
[2]
  IC50: 15 nM
[3]
  solubility: 5 µM (≈ 1.96 µg/mL)

## O=C(CC1S/C(=N\c2ccccc2F)N(Cc2ccc3c(c2)OCO3)C1=O)Nc1ccc(C(=O)O)cc1 (centres undefined)
Homo sapiens
  inhibition: 49%

## Cc1sc(NC(=O)CCCCC(=O)Nc2sc(C)c(C)c2C(N)=O)c(C(N)=O)c1C
[12]
  IC50: 54900 nM

## C[C@@H](CO)NC(=O)[C@@H]1C=C2c3cccc4[nH]cc(c34)C[C@H]2N(C)C1 [ERGONOVINE MALEATE]
[10]
  Ki: 71100 nM
[11]
  IC50: 366000 nM

## [2H]C([2H])(Nc1ncc(-c2cccnc2C)c(=O)n1C)c1c(F)ccc2c1CCO2
Pfeiffer [15]
  inhibition in vivo at 40 mg/kg: 83%
Polycomb protein EED [4]
  IC50: 4.5 nM
[16]
  inhibition in vivo at 30 mg/kg: 59.3%
KARPAS-422 [17]
  inhibition in vivo at 100 mg/kg: 85%
KARPAS-422 [18]
  inhibition in vivo at 100 mg/kg: 85%
Pfeiffer [19]
  inhibition in vivo at 100 mg/kg: 96%
KARPAS-422 [20]
  inhibition in vivo at 40 mg/kg: 75%
Polycomb protein EED [21]
  IC50: 4.5 nM
Pfeiffer [22]
  inhibition in vivo at 100 mg/kg: 96%

## Cc1ncccc1-c1sc(NCc2c(F)ccc3c2CCO3)nc1C
Polycomb protein EED [23]
  Kd: 3700 nM
Polycomb protein EED [24]
  IC50: 5600 nM
